{"source": "patent US20260033466A1", "about": "“METHOD AND ANIMAL MODEL FOR INDUCING BCC TUMORS” (FELDAN BIO INC., priority 2022, published 2026)", "molecules": {"B1": {"name": "Ptch1.2559: shRNA targeting mouse Ptch1, nucleobases 2776-2796 of SEQ ID NO: 12; selected for the BCC model (nucleic acid)", "guide": "TCATGCCAAACAATTATAAAATAGTGAAGCCACAGATGTATTTTATAATTGTTTGGCATGA"}}, "key": {"[1]": {"system": "GFP (indicative of Ptch1 and p53 shRNA expression)", "experiment": "Immunofluorescence of GFP in skin of BCC mice after induction, no UV-B", "type": "in vivo, mouse", "conditions": "absence of UV, fluorescence microscopy of skin sections, FIG. 4", "procedure": "Positive GFP fluorescence is indicative of Ptch1 and p53 shRNA expression. […] Positive GFP fluorescence is indicative of Ptch1 and p53 shRNA expression.\nFor histological staining by immunofluorescence, sections were incubated 5 minutes in room temperature PBS to remove the OCT compound and then drained as much as possible. Slides were then blocked in BSA 3% and stained with anti-GFP antibody (ab6556 Abcam) or anti-Ptch1 (ThermoFisher PA5-87508) or anti-CK14 (BioLegend™ #906004) O/N at 4° C. Sections were then washed thrice (5 minutes each) with PBST and incubated with fluorophore-conjugated antibodies. Following washes (3×5 minutes), 100 μL per slide of ProLong™ Glass NucBlue™ (Invitrogen™) were applied and a coverslip. Slides were incubated overnight in the dark prior to imaging. Slides were imaged within 1-4 days after mounting and left in the dark until that time.\nNext, shRNA expression was assessed in the skin of mice, either untreated, or after induction with either tamoxifen alone, doxycycline alone, or tamoxifen/doxycycline in the absence of UV."}, "BCC tumors": {"system": "BCC tumors", "experiment": "Anti-BCC treatment of induced BCC mice (tamoxifen/doxycycline and UV-B)", "type": "in vivo, mouse", "conditions": "begun 37-43 weeks post-induction"}, "mouse Ptch1": {"system": "mouse Ptch1", "experiment": "shRNA knockdown efficiency reporter assay (Yuan et al. 2014)", "type": "cell-based", "conditions": "Ptch1 mRNA expression normalized to shRen713 (positive control); FIG. 2", "method": "Knockdown efficiency was calculated by Ptch1 mRNA expression normalized to shRen713 ([…]).\nKnockdown efficiency was calculated by Ptch1 mRNA expression normalized to shRen713 ([…]), a reporter shRNA targeting Renilla Luciferase 713."}}}
{"molecule": "CC/C(=C(\\c1ccccc1)c1ccc(OCCN(C)C)cc1)c1ccccc1", "note": "[tamoxifen]", "values": [{"measurement": "GFP expression in skin (shRNAs targeting Ptch1 and p53)", "setting": "[1]", "value": "no expression of GFP"}]}
{"molecule": "CS(=O)(=O)c1ccc(C(=O)Nc2ccc(Cl)c(-c3ccccn3)c2)c(Cl)c1", "note": "[vismodegib]", "values": [{"measurement": "tumor appearance (scabbing/crusting)", "setting": "BCC tumors; oral daily via gastric gavage 5 mg/kg, after 18-25 days of treatment, FIG. 12", "value": "visible signs of scabbing/crusting of the tumors"}]}
{"molecule": "CO[C@H]1C[C@@H]2CC[C@@H](C)[C@@](O)(O2)C(=O)C(=O)N2CCCC[C@H]2C(=O)O[C@H]([C@H](C)C[C@@H]2CC[C@@H](OCCO)[C@H](OC)C2)CC(=O)[C@H](C)/C=C(\\C)[C@@H](O)[C@@H](OC)C(=O)[C@H](C)C[C@H](C)/C=C/C=C/C=C/1C", "note": "[everolimus]", "values": [{"measurement": "tumor appearance (scabbing/crusting)", "setting": "BCC tumors; i.p. 3 mg/kg, after 7-12 days of treatment, FIG. 13", "value": "visible signs of scabbing/crusting of the tumors"}]}
{"molecule": "B1", "values": [{"measurement": "knockdown efficiency", "setting": "mouse Ptch1", "value": 101.24, "unit": "%"}]}
